From US20160129078A1, “Rhomboid Proteins and Uses Thereof” (Queen's University at Kingston, priority 2014, published 2016)

Tests used:
[1] = test system: yeast; experiment: Sensitization of yeast to fungicidal agents AmB and Nys; type: cell-based, Saccharomyces cerevisiae; settings: range of 0 to 1% (v/v), no rhomboid protein, one hour
[2] = test system: yeast; experiment: as above; type: cell-based, Saccharomyces cerevisiae; settings: for yeast cell survival, fungicide alone: sub-lethal levels (1% AmB, 0.5% Nys), no rhomboid protein; for sensitization of yeast to antifungals AmB and Nys: exogenous protein co-delivered with sub-lethal AmB and Nys, as Example 13
Experimental: Experiments were conducted to assess the ability of the Arabidopsis At1g74130 proteins or variants to sensitize yeast to the antifungal agents Amphotericin B (AmB) and Nystatin (Nys). Overall, these assays were conducted in a manner similar to that designed for bacteria (Example 9). In addition to the components mixed with the added proteins or variants, the antifungal AmB was also utilized as part of the delivery system. The AmB drug contains small quantities of the detergent deoxycholate, which may also assist in the delivery of proteins into the cell, as well as function as a pore forming agent itself. […] The effective co-delivery sub-lethal concentrations of the two antifungal agents or protein had little or no effect when provided individually. FIGS. 17 and 18 show results of the yeast sensitivity assays for AmB and Nys. […] In FIG. 17, the “Yeast Control” bars represent yeast cells given mock treatments with culture media (YPD) alone, YPD plus 1% AmB, YPD plus 0.5% Nys, and YPD plus 1% AmB and 0.5% Nys, respectively. The “BSA Control” bars represent another set of mock treatments with yeast cells. This set utilized the same set-up as the Yeast Control set but with added control bovine serum albumin proteins (BSA) (dissolved in the elution buffer, the same buffer used for the purification of the recombinant At1g74130 rhomboid proteins or variants). These assays represent another variation of negative controls for rhomboid protein. The “Elution Control” bars represent yeast cells mock treated using the same set-up as in the Yeast Control set but with added elution buffer alone. This variation of control assays was designed to assess for potential toxic impacts when combining elution buffer and the listed drugs, as well any effects originating from components of the elution buffer itself. The composition of the elution buffer is provided above in Example 5. With the exception of Nys, these treatments represent the first step and occur for 45 minutes before the second step when exposure to fungicides takes place. Within each set of bars, where applicable, the second 15-minute step treatment occurred with a sub-lethal dose of Nys. After a total of one hour, the treated yeast cells were plated on non-selective YPD agar plates. Plates were grown 2-3 days at 27-30° C. and assessed for surviving cell numbers (measuring cell death). Images were also taken to document cell and colony growth characteristics.
In the experimental assays, the sensitizing properties of At1g74130 or variants (sensitizing variants) were tested by adding 10 ug protein (At1g74130 or variants in elution buffer) to yeast cells (300-500 cells). To reiterate in all cases, the components were added to cultures and mixed for one hour, where Nys was added and incubated for the last 15 minutes of the treatment. Pre-treatment was designed to permit AmB and At1g74130 proteins to establish and work prior to adding Nys. After the one hour incubation, 500 cells were plated on non-selective YPD agar media and grown for 48 hours at 30′C.
The sub-lethal levels of fungicides to use in these assays were determined using dosage experiments. These assays were conducted on yeast cells without added rhomboid proteins or variants. The dosages of AmB tested ranged from 0 to 5% (v/v). […] Likewise, the Nys level was determined using a range of 0.5 to 2.5%. Yeast cells were treated for one hour with fungicides in a total volume of 400 μl YPD media before plating.
Since both the AmB buffer contained small quantities of detergent (deoxycholate being the main one), an experiment was done in which different amounts (1% and 10%) of deoxycholate were added to yeast cells to ascertain any effects. Adding deoxycholate had little effect on yeast.
This set of yeast assays was conducted in the same manner described above (Example 13) and employed the same controls and combinations. […]

[3] = test system: ampicillin resistant E. coli; experiment: Sensitization of bacteria to ampicillin by exogenous rhomboid protein; type: cell-based, Escherichia coli
Experimental: Experiments were conducted to assess the ability of At1g74130 proteins or variants to sensitize bacteria to the antibiotic ampicillin, using “super-resistant” E. coli (multi-copy pET20b plasmid-based ampicillin-resistant lab strains). This model is considered the so-called “SuperBug” model, as commonly referred to in the public domain and media.
Control assays were conducted on cells without added At1g74130 or variants (sensitizing variants) to determine the delivery system to use and the appropriate levels of ampicillin to use. Control assays were also conducted to determine if the 5% (v/v) DMSO delivery system exerted any effects. Bacterial cells, usually 800-1000, were mock treated with Luria Broth (LB) media or 5% (v/v) DMSO for 15 minutes prior to exposure to a 30-45 minute exposure to ampicillin (1.25 mg/ml or 1.5 mg/ml). Total volumes of 200 μl were used in these assays. The treated-exposed cells were then plated onto non-selective LB agar plates and allowed to grow overnight to assess the level of cell death or susceptibility to ampicillin. The ampicillin range found useful for these assays was between 1.25 mg/ml to 1.5 mg/ml. This range mirrored the observations reported in an earlier section above with transgenic bacterial cells and ampicillin susceptibility. […]

[4] = test system: bacteria; experiment: Sensitization of bacteria to tetracycline by exogenous rhomboid protein; type: cell-based, Escherichia coli; settings: tetracycline 15 ug/ml
Experimental: Experiments were conducted to assess the ability and the utility of At1g74130 protein variants to sensitize bacteria to another antibiotic, tetracycline. In bacteria, tolerance or resistance to tetracycline is facilitated by a mechanism different from the ampicillin resistance assayed in Example 9. Unlike the breakdown of ampicillin outside the bacterial cells by secreted ampicilliase, tetracycline resistance in bacteria is based largely on the continual and effective pumping of tetracycline out of the cell by proteinaceous membrane pumps. To assess the utility of the At1g74130 for sensitizing bacteria to tetracycline, these bacterial assays were conducted in the same manner described in Example 9. The same controls and combinations were used. The final treatment level of tetracycline used in place of the ampicillin treatment was 15 ug/ml.
Experiments were conducted to assess the ability and the utility of a human rhomboid type or variant to sensitize bacteria to tetracycline. These bacterial assays were conducted in the same manner described above for the other rhomboid variants and in Example 9. The same controls and combinations were used. The At1g74130 L was the control for UBAC2 in this set of assays. The previously observed behaviours and responses were not observed for UBAC2 in this setting with the antibiotic tetracycline (FIG. 16).

C[C@@H]1[C@H](O)[C@@H](C)/C=C/C=C/C=C/C=C/C=C/C=C/C=C/[C@H](O[C@@H]2O[C@H](C)[C@@H](O)[C@H](N)[C@@H]2O)C[C@@H]2O[C@](O)(C[C@@H](O)C[C@@H](O)[C@H](O)CC[C@@H](O)C[C@@H](O)CC(=O)O[C@H]1C)C[C@H](O)[C@H]2C(=O)O [AmB, Amphotericin B, reference compound]
surviving yeast colonies in dosage experiment [1]: no significant differences | yeast cell survival, fungicide alone [2]: small reduction in yeast cell survival

C[C@@H]1[C@H](O)[C@@H](C)/C=C/C=C/CC/C=C/C=C/C=C/C=C/C(O[C@H]2O[C@H](C)[C@@H](O)[C@H](N)[C@@H]2O)CC2O[C@](O)(CC(O)C(O)CCC(O)CC(O)CC(O)CC(=O)O[C@H]1C)CC(O)C2C(=O)O (stereo partly drawn) [Nys, Nystatin, reference compound]
yeast cell survival, fungicide alone [2]: small reduction in yeast cell survival

CC1(C)S[C@@H]2[C@H](NC(=O)[C@H](N)c3ccccc3)C(=O)N2[C@H]1C(=O)O [ampicillin, reference compound]
effect on bacteria when provided individually ([3]; effective co-delivery concentration, without protein): no effects

deoxycholate
effect on yeast ([2]; 1% and 10% added to yeast cells): little effect

B1: UBAC2: human UBAC2 isoform 1, fusion between a rhomboid pseudoprotease sequence and ubiquitin-associating domains (protein, listed as Homo sapiens)
chain: MQYFFGITAASNLPSGFLAPVFALFVPFYCSIPRVQVAQILGPLSITNKTLIYILGLQLFTSGSYIWIVAISGLMSGLCYDSKMFQVHQVLCIPSWMAKFFSWTLEPIFSSSEPTSEARIGMGATLDIQRQQRMELLDRQLMFSQFAQGRRQRQQQGGMINWNRLFPPLRQRQNVNYQGGRQSEPAAPPLEVSEEQVARLMEMGFSRGDALEALRASNNDLNVATNFLLQH
sensitization of bacteria to tetracycline [4]: not observed | sensitization of yeast to antifungals AmB and Nys [2]: increased the sensitivity

B2: At1g25290 L: L-form Arabidopsis At1g25290 rhomboid protease, contains the RVL cyclin-binding domain (protein, listed as Arabidopsis thaliana)
chain: MVSVSLSHHNLWPPESGSTAFRGFATAASVHACHHVSRHLRLDFHLRSSLKKLQHFSDDARMKFARYQRVFVFNGANFLKSRVDIRLSQSSPFVCFFNGGESRLNPRGGEEGSSNPETSKRNTVNGRRWTNVLLAINVIMYIAQIASDGKVLTWGAKINSLIERGQLWRLATASVLHANPMHLMINCYSLNSIGPTAESLGGPKRFLAVYLTSAVARVLGSAMSYWFNKAPSVGASGAIFGLVGSVAVFVIRHKQMVRGGNEDLMQIAQIIALNMAMGLMSRR
sensitization of bacteria to ampicillin ([3]; exogenous protein, same manner as Example 9): no activity | sensitization of yeast to antifungals AmB and Nys [2]: no activity
